From ChEMBL document CHEMBL1201862, “PubChem BioAssay data set” (2004)
The source made the active and inactive calls. For most assays here, no stated cut-off is given here; in the data, actives have a measured IC50 and inactives only a lower limit.

What was measured:
[1] = target: T1, Sentrin-specific protease 8 (Homo sapiens, UniProt Q96LD8); format: functional;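 further: luminescence read-out of SENP8 inhibition, dose-response confirmation following an ultra-high-throughput screen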
T1 sequence (Q96LD8 whole entry): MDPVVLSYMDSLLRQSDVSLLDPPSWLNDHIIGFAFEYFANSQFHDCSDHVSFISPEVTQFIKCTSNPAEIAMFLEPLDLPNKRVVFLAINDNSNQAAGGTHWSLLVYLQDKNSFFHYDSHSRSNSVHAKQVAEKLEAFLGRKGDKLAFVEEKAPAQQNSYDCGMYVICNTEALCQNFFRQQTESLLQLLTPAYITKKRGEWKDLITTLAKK

[2] = target: T2, Sentrin-specific protease 6 (Homo sapiens, UniProt Q9GZR1); format: functional;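 further: Luminescence-based dose-response confirmatory assay of SENP6 inhibition, following up an ultra-high-throughput screen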
T2 sequence (Q9GZR1 whole entry): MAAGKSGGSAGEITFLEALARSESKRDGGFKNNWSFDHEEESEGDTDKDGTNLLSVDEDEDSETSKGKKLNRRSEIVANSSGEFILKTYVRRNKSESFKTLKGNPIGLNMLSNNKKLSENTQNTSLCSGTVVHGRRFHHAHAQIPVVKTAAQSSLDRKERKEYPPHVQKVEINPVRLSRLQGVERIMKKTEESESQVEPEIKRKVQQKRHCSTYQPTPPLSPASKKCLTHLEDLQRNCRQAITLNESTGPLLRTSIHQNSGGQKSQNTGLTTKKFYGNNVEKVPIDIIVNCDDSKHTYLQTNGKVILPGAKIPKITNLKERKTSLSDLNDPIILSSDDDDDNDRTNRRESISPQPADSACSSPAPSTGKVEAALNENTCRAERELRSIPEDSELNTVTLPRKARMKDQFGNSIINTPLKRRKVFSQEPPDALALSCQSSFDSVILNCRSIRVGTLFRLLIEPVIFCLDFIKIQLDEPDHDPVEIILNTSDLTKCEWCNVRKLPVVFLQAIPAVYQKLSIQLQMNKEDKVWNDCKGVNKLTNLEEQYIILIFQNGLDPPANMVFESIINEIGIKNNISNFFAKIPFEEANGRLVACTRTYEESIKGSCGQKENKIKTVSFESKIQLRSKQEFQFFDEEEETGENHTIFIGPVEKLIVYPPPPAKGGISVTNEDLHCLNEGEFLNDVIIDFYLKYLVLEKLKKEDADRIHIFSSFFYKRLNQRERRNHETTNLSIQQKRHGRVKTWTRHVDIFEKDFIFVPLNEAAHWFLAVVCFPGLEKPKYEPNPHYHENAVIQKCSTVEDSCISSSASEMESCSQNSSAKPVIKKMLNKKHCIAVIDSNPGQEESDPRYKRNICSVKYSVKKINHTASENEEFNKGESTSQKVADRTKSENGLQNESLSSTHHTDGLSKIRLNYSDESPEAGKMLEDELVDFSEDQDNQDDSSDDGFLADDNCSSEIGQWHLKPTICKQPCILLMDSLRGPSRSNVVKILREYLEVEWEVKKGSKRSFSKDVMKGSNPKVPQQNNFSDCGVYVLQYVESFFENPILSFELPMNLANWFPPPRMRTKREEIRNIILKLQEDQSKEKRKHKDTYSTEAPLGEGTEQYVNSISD

[3] = target: T3, Mannose-6-phosphate isomerase (Homo sapiens, UniProt P34949); assay: human PMI inhibitors, high substrate, primary screen, biochemical, fluorescence intensity, high mannose 6-phosphate (AID 1220)
T3 sequence (P34949 whole entry): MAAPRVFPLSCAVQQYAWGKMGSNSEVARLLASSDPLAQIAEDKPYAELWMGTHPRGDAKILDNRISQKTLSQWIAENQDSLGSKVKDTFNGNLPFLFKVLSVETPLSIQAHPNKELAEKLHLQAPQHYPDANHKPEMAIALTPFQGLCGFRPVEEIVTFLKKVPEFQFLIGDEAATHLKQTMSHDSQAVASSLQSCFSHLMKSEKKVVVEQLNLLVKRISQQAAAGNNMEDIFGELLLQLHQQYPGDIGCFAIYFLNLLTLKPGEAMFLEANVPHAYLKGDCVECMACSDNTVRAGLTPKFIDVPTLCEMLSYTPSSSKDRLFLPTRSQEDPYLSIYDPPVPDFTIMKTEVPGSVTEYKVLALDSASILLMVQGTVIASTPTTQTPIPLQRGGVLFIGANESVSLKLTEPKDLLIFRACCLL

[4] = target: Paired box protein Pax-8 (Homo sapiens, UniProt Q06710); assay: inhibitors of PAX8-driven TPO luciferase reporter, dose response, RMG-I cells, cherry-pick (AID 687027); format: functional, cell-based;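 further: luciferase reporter driven by Pax8 target thyroperoxidase promoter measured by SteadyGlo luminescence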
[5] = control 3'UTR Renilla luciferase suppression, dose response, counter-screen for Shn3 inhibitor project, cell-based, Clone20-Shn3RL, cherry-picked (AID 624133); format: functional

Chain of Paired box protein Pax-8 (Q06710 whole entry): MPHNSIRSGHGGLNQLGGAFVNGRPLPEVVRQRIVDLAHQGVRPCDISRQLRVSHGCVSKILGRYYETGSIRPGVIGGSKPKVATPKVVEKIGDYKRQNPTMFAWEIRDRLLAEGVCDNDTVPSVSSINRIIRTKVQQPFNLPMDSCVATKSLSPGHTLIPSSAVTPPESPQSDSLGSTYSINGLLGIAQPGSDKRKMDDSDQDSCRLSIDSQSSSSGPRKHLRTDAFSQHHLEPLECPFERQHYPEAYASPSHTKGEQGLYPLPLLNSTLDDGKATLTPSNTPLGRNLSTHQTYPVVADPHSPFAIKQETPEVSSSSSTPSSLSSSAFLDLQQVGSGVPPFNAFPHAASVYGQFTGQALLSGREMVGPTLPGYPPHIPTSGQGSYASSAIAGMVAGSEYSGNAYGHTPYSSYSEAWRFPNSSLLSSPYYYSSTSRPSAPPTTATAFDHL

Q: Which results are given for O=C(c1ccccc1)c1coc2c1C(=O)c1ccccc1C2=O?
A: IC50 [1]: 17.4 µM (active); IC50 [2]: 4.61 µM (active)

Q: With CCOC(=O)c1c(C)oc2c1c(/C=N/CCC(=O)O)c(O)c1ccccc12 as the compound, how does the IC50 [3] read?
A: The IC50 was > 50 µM (not active).

Q: Which results are given for CCOC(=O)c1c(C)[nH]c2c1-c1ccccc1C(=O)C2=O?
A: AC50 [4]: 1.05 µM (active); AC50 [5]: 1 µM (active)

Q: Which results are given for COc1ccc2c(c1)CCC(/C=N/c1ccc3c(c1)OCO3)=C2O?
A: IC50 [1]: 15.1 µM (active); IC50 [2]: 8.46 µM (active); IC50 [3]: 15.6 µM (active)

Q: Which results are given for CC(=O)NC(c1ccc2ccccc2c1)c1ccc2cccnc2c1O (stereo not given)?
A: AC50 [4]: 1.89 µM (active); AC50 [5]: 0.51 µM (active)
